# System: male MC-3R^−/− and WT mice
# Assay: Peripheral MTII administration: 24-h food consumption
# Conditions: single intraperitoneal injection, 10 mg/kg, n=9, P<0.05
# Procedure: Peripheral MTII administration—For seven consecutive days, individually-housed 23-25-week-old male MC-3R^−/− (n=9) and WT (n=9) mice received an intraperitoneal (ip) injection of a sterile 0.9% NaCl vehicle solution approximately 30 min before the onset of the dark phase of the light cycle. At the same time on the eighth consecutive day of the study, mice received an ip injection of MTII at a dose of 10 mg/kg delivered in vehicle. Body and food (Teklad 7012) weights were measured and recorded daily approximately 15 min prior to injection.
substance,measurement,setting,value
MTII,reduction of food consumption over a 24-h period relative to a 2-day vehicle treatment baseline,MC-3R^−/− male mice,16.9±7.0%
same,reduction of food consumption over a 24-h period relative to a 2-day vehicle treatment baseline,WT male mice,11.1±4.3%
